Test results published in PMC4932537, “Search for Potent and Selective Aurora A Inhibitors Based on General Ser/Thr Kinase Pharmacophore Model” (Pharmaceuticals, 2016).

What was measured:
[1] = target: T1, Aurora A (Homo sapiens, UniProt O14965); experiment: Aurora A kinase inhibition (biochemical assay); details: Table 2; Mean ± SEM, four repeats; read-out: Aurora A kinase inhibition IC50
T1 sequence (O14965 1-403): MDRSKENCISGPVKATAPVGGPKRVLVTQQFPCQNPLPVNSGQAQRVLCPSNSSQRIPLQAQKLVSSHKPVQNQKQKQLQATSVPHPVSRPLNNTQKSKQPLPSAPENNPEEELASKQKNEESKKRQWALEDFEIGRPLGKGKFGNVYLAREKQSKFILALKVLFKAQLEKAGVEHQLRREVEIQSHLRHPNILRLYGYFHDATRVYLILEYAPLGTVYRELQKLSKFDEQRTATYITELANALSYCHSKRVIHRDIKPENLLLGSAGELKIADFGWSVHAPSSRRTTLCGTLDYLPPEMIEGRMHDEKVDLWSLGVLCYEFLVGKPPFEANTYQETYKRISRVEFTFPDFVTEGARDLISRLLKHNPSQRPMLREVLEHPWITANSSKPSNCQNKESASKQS

[2] = target: Aurora B (Homo sapiens, UniProt Q96GD4); experiment: Aurora B kinase inhibition; format: biochemical; details: Table 3; Mean ± SEM
[3] = target: c-Kit (Homo sapiens, UniProt P10721); experiment: c-Kit kinase selectivity; format: biochemical; details: Mean ± SEM
[4] = target: CSK (Homo sapiens, UniProt P41240); experiment: CSK kinase selectivity; format: biochemical; details: Mean ± SEM
[5] = target: EPHA2 (Homo sapiens, UniProt P29317); experiment: EPHA2 kinase selectivity; format: biochemical; details: Mean ± SEM
[6] = target: JNK3 (Homo sapiens, UniProt P53779); experiment: JNK3 kinase selectivity; format: biochemical; details: Mean ± SEM
[7] = target: LYN (Homo sapiens, UniProt P07948); experiment: LYN kinase selectivity; format: biochemical; details: Mean ± SEM
[8] = target: RON (Homo sapiens, UniProt Q04912); experiment: RON kinase selectivity; format: biochemical; details: Mean ± SEM
[9] = Solubility (nephelometry); format: physicochemical; details: kinetic from dmso stock
[10] = test system: HL-60 (acute promyelocytic leukemia); experiment: MTT cytotoxicity, HL-60; format: cell-based; details: Homo sapiens; HL-60, MTT, 72 h
Description: (§1) All cells lines were purchased in ATCC (Manassas, VA, USA), except for human primary fibroblasts (HFB), which were a generous gift from Dashinimaev E.B. (Koltsov Institute of Developmental Biology). H1299 (lung adenocarcinoma), H23 (lung adenocarcinoma), Colo320 (colon carcinoma), RS4;11 (acute lymphoblastic leukemia), PC3 (prostate adenocarcinoma) and HL-60 (acute promyelocytic leukemia) were cultivated in RPMI-1640 medium, with addition of 10% fetal calf serum (HyClone, South Logan, Utah, USA) and 2 mM L-Glutamine at 37 °C, 5% CО2. MDA-MB-453 (mammary adenocarcinoma), A549 (lung adenocarcinoma), HCT-116 (colon carcinoma), A431 (epidermoid carcinoma), MDA-MB-231 (mammary adenocarcinoma), BxPC3 (pancreatic adenocarcinoma), MEF (mouse embryonic fibroblasts, SV-40 immortalized), MEF Bax^−/−/Bak^−/− knockout cells (mouse embryonic fibroblasts, SV-40 immortalized, resistant to apoptosis) were cultivated in DMEM medium, with addition of 10% fetal calf serum (HyClone) and 2 mM L-Glutamine at 37 °C, 5% CО2.
(§2) Cells were seeded in 96-well plates (Corning, NY, USA): 5000 cells per well for adhesive cultures and cells, 25,000 cells per well for suspension cultures. Analyzed substances were added in 0.1–50 μM concentration range, with 2 × dilutions, and incubated for 72 h at 37 °C, 5% CО2. After incubation 20 uL of 5 mg/mL of water solution of 3-(4,5-dimethylthiazol-2-yl)-2,5-diphenyltetrazolium bromide (MTT, PANEKO, Moscow, Russia) was added to the cells and they were incubated for additional 4 h. After the incubation the medium was aspirated, cells were dissolved in 100 uL of DMSO and the optical density was measured at 570 nm with a МultiscanFC plate reader (ThermoScientific, Cambridge, MA, USA). The percentage of surviving cells at each dose was calculated by dividing the optical density of treated cells by the optical density of untreated control (which was taken as 100%). The IC50s were calculated in GraphPad Prism 5.0.

[11] = test system: H23 (lung adenocarcinoma); experiment: MTT cytotoxicity, H23; format: cell-based; details: 72 h
Description: as §1, §2

[12] = test system: H1299 (lung adenocarcinoma); experiment: MTT cytotoxicity, H1299; format: cell-based; details: Homo sapiens, NCI-H1299, 72 h
Description: as §1, §2

[13] = test system: PC3 (prostate adenocarcinoma); experiment: MTT cytotoxicity, PC3; format: cell-based; details: 72 h
Description: as §1, §2

[14] = test system: MDA-MB-453 (mammary adenocarcinoma); experiment: MTT cytotoxicity, MDA-MB-453; format: cell-based; details: Homo sapiens; MDA-MB-453, MTT, 72 h
Description: as §1, §2

[15] = test system: RS4;11 (acute lymphoblastic leukemia); experiment: MTT cytotoxicity, RS4;11; format: cell-based; details: Homo sapiens; RS4;11, MTT, 72 h
Description: as §1, §2

[16] = test system: A-549 (lung adenocarcinoma); experiment: MTT cytotoxicity, A-549; format: cell-based; details: Homo sapiens, A549; A-549, MTT, 72 h
Description: as §1, §2

[17] = test system: HCT-116 (colon carcinoma); experiment: MTT cytotoxicity, HCT-116; format: cell-based; details: Homo sapiens; HCT-116, MTT, 72 h
Description: as §1, §2

[18] = MTT cytotoxicity, HFB; format: cell-based; details: human, human primary fibroblasts (HFB)
Description: as §1, §2

[19] = test system: A431 (epidermoid carcinoma); experiment: MTT cytotoxicity, A431; format: cell-based; details: Homo sapiens, A-431, 72 h
Description: as §1, §2

[20] = test system: Colo-320 (colon carcinoma); experiment: MTT cytotoxicity, Colo-320; format: cell-based; details: Homo sapiens; Colo-320, MTT, 72 h
Description: as §1, §2

[21] = test system: MDA-MB231 (mammary adenocarcinoma); experiment: MTT cytotoxicity, MDA-MB231; format: cell-based; details: Homo sapiens, MDA-MB-231, 72 h
Description: as §1, §2

[22] = test system: BxPC3 (pancreatic adenocarcinoma); experiment: MTT cytotoxicity, BxPC3; format: cell-based; details: Homo sapiens, BXPC-3, 72 h
Description: as §1, §2

[23] = MTT cytotoxicity, MEFs Dko; format: cell-based; details: mouse, MEFs Dko (bax−/−bak−/−)
Description: as §1, §2

[24] = MTT cytotoxicity, MEF WT; format: cell-based; details: mouse
Description: as §1, §2

[25] = target: GSK-3; experiment: GSK-3 kinase selectivity; format: biochemical; details: Mean ± SEM
[26] = target: CYP2C19 (Homo sapiens, UniProt P33261); experiment: CYP2C19 inhibition; format: in vitro ADME; details: Mean ± SEM
[27] = target: CYP 2C9 (Homo sapiens, UniProt P11712); experiment: CYP 2C9 inhibition; format: in vitro ADME; details: Mean ± SEM
[28] = target: CYP3A4 (Homo sapiens, UniProt P08684); experiment: CYP3A4 inhibition; format: in vitro ADME; details: Mean ± SEM
Sequence of CYP3A4 (P08684 whole entry): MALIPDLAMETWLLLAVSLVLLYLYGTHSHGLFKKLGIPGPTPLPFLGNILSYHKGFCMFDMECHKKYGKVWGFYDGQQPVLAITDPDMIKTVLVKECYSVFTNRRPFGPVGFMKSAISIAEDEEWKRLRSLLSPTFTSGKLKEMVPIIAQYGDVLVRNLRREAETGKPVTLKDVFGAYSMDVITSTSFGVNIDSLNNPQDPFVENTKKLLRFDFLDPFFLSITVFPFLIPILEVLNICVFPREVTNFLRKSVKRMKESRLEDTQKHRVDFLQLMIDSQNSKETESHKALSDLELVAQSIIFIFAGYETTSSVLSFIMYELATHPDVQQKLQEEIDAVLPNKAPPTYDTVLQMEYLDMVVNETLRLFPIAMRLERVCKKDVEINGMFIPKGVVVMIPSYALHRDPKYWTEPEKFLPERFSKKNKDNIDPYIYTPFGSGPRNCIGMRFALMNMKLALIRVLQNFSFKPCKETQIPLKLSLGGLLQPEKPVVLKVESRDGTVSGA

Sequence of JNK3 (P53779 whole entry, species assumed): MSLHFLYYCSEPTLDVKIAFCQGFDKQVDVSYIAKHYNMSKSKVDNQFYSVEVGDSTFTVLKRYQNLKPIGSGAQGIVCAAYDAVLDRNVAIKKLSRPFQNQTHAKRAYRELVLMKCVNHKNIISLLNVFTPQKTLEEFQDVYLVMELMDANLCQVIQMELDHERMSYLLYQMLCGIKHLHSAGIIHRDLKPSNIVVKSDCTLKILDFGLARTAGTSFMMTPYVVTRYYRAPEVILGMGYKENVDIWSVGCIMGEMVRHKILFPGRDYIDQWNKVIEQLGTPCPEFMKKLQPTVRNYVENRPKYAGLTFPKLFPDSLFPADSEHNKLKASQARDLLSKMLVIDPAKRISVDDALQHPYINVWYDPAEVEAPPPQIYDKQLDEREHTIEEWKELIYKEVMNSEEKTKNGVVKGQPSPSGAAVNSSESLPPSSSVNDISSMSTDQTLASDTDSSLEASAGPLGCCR
Sequence of Aurora B (Q96GD4 whole entry): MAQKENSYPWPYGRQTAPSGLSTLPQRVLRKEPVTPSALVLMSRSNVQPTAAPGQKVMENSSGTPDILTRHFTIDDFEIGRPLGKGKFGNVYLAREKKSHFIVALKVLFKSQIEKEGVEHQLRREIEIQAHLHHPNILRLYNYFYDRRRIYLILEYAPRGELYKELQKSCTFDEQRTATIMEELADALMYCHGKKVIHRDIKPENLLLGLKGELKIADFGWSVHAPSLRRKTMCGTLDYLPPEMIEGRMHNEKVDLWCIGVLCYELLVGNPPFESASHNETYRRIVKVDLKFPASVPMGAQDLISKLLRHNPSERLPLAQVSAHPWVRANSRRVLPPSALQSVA
Sequence of c-Kit (P10721 26-976): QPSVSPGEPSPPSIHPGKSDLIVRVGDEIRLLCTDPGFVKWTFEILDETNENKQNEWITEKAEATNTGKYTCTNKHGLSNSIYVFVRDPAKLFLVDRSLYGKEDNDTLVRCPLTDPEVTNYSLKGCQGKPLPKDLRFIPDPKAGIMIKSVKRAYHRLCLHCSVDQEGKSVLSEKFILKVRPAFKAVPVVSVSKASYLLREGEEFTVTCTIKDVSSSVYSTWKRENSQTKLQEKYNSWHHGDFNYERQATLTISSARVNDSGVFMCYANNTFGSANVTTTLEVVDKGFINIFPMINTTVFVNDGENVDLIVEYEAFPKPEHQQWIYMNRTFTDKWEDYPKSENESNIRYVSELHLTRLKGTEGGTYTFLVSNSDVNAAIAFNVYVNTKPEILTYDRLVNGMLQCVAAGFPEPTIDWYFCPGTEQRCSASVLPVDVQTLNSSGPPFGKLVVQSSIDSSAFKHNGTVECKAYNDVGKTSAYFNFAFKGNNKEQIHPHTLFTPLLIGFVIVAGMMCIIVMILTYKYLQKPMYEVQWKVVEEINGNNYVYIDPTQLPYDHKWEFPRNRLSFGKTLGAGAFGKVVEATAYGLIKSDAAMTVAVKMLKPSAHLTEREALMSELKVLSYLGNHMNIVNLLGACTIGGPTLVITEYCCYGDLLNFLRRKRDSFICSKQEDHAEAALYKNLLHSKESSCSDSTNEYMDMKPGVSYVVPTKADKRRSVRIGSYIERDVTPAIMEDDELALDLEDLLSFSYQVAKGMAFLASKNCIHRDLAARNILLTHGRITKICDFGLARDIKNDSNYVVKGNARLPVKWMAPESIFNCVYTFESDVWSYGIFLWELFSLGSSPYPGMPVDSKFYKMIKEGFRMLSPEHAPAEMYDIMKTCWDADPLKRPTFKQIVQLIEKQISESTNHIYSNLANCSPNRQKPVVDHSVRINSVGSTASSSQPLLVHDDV
Sequence of CYP 2C9 (P11712 whole entry): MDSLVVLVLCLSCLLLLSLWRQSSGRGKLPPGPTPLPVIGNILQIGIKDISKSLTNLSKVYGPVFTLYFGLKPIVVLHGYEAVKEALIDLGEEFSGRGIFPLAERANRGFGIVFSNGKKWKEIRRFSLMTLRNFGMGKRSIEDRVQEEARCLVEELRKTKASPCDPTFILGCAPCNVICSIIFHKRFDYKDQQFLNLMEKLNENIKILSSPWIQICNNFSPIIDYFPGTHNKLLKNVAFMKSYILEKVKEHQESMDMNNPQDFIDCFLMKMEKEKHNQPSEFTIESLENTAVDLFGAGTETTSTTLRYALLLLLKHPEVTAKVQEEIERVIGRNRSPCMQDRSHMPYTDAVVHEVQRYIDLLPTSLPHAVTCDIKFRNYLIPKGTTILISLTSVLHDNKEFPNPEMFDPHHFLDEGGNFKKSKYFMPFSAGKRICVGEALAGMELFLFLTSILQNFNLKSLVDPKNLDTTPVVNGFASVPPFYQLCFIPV
Sequence of CYP2C19 (P33261 whole entry): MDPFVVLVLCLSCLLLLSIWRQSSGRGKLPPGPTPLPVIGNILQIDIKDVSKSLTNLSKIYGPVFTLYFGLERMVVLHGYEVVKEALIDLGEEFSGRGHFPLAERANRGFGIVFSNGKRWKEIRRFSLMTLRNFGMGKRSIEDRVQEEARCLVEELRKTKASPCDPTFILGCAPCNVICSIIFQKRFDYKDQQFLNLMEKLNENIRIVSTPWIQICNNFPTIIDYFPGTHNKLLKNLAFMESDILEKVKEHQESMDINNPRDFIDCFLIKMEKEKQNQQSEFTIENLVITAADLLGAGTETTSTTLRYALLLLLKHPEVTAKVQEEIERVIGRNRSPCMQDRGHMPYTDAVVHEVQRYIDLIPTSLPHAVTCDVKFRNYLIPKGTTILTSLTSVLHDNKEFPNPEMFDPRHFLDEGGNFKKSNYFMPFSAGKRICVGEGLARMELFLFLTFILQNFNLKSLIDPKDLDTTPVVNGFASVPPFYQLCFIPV
Sequence of EPHA2 (P29317 24-976, species assumed): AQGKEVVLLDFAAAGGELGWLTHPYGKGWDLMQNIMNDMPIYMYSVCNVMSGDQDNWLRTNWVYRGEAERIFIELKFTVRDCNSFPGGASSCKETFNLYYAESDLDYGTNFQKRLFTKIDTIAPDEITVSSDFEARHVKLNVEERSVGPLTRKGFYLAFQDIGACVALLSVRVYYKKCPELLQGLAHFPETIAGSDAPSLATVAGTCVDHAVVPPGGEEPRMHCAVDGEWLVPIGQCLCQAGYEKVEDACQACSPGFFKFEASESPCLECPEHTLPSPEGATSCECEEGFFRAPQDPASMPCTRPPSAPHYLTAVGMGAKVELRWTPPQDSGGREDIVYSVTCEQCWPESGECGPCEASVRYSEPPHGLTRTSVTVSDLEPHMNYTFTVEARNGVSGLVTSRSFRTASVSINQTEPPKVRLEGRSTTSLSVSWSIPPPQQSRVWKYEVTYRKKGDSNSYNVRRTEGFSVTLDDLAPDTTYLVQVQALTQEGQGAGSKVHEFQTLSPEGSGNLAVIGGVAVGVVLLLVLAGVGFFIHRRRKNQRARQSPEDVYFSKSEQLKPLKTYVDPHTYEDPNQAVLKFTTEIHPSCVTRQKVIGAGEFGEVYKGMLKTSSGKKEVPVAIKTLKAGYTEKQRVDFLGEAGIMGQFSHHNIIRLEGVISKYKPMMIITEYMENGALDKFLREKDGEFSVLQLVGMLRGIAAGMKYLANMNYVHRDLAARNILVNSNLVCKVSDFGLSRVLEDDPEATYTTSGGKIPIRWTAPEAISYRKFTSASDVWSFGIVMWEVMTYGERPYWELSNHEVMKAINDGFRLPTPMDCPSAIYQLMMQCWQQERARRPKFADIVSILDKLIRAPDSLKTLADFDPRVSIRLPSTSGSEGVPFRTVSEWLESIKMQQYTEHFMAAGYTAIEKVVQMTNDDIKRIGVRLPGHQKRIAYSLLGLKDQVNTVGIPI
Sequence of CSK (P41240 whole entry, species assumed): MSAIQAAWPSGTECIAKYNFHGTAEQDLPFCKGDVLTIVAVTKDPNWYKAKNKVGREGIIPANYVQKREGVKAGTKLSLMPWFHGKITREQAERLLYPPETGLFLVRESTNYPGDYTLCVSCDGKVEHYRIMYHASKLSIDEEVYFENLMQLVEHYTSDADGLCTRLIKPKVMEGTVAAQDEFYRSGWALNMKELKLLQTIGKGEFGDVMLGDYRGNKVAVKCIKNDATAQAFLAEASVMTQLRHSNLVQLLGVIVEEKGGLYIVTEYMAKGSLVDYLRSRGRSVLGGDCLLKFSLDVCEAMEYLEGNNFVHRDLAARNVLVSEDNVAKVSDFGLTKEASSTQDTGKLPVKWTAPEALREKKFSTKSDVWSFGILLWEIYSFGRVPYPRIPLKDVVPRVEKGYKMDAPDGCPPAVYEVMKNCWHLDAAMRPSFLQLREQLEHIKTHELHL

Compound	IC50 [1] [µM]	IC50 [2] [µM]	IC50 [6] [µM]	solubility [9] [mg/mL]	IC50 [10] [µM]	IC50 [11] [µM]	IC50 [12] [µM]	IC50 [13] [µM]	IC50 [14] [µM]	IC50 [15] [µM]	IC50 [16] [µM]	IC50 [17] [µM]	IC50 at 72 h [18] [µM]	IC50 [19] [µM]	IC50 [20] [µM]	IC50 [21] [µM]	IC50 [22] [µM]	IC50 at 48 h [23] [µM]	IC50 at 48 h [24] [µM]	melting point [°C]	further results
Cc1cc(Nc2ncc(Cl)s2)nc(CC2CCN(C(=O)c3cccc(Cl)c3F)CC2)n1 [Compound 13, (3-Chloro-2-fluoro-phenyl)-{4-[4-(5-chloro-thiazol-2-ylamino)-6-methyl-pyrimidin-2-ylmethyl]-piperidin-1-yl}-methanone]	0.0041 ± 0.00035	0.232 ± 0.0241	0.0852 ± 0.0091	< 0.01	20.9 ± 2.1	1.2 ± 0.09	1.1 ± 0.1	3.9 ± 0.4	8 ± 0.79	1.1 ± 0.11	5.1 ± 0.4	4.4 ± 0.5	2.8 ± 0.3	6.1 ± 0.7	1 ± 0.11	10.5 ± 1.1	2.4 ± 0.14	3.6 ± 0.3	2.5 ± 0.3	221 to 223	IC50 [3]: 17 µM; IC50 [4]: 9.5 ± 0.101 µM; IC50 [5]: 9 ± 0.985 µM; IC50 [7]: 3.27 ± 0.324 µM; IC50 [8]: 0.97 ± 0.101 µM
Cc1cc(Nc2ccn[nH]2)nc(CC2CCN(C(=O)c3cccc(Cl)c3F)CC2)n1 [Compound 14, (3-Chloro-2-fluoro-phenyl)-{4-[4-methyl-6-(2H-pyrazol-3-ylamino)-pyrimidin-2-ylmethyl]-piperidin-1-yl}-methanone]	0.0053 ± 0.00046	18.3	1.63 ± 0.167	> 0.1																125 to 128	IC50 [3]: 21 µM; IC50 [25]: 0.109 ± 0.0121 µM; IC50 [26]: 9.6 ± 0.96 µM; IC50 [27]: 3.9 ± 0.401 µM; IC50 [28]: 15.1 ± 0.151 µM
Cc1cc(Nc2cccc(CC3CCN(C(=O)c4cccc(Cl)c4F)CC3)n2)[nH]n1 [Compound 15, (3-Chloro-2-fluoro-phenyl)-{4-[6-(5-methyl-2H-pyrazol-3-ylamino)-pyridin-2-ylmethyl]-piperidin-1-yl}-Methanone]	0.0175 ± 0.0021				38.8 ± 3.2	> 50	3.7 ± 0.3	9.7 ± 1	5.7 ± 0.6	0.1 ± 0.02	5.7 ± 0.6	2.8 ± 0.3	3 ± 0.2	6.8 ± 0.7	1 ± 0.12	> 50	7.2 ± 0.6	3 ± 0.2	0.9 ± 0.08	120 to 122	
Cc1cc(Nc2ccnc(CC3CCN(C(=O)c4cccc(Cl)c4F)CC3)n2)[nH]n1 [Compound 16, (3-Chloro-2-fluoro-phenyl)-{4-[4-(5-methyl-2H-pyrazol-3-ylamino)-pyrimidin-2-ylmethyl]-piperidin-1-yl}-methanone]	0.0035 ± 0.00029	4.182 ± 0.0401	0.572 ± 0.0561	> 0.1	> 50	> 50	1.5 ± 0.12	8.3 ± 0.8	12 ± 1.2	0.3 ± 0.02	8.8 ± 0.9	4.2 ± 0.4	3.3 ± 0.3	9 ± 1	1.2 ± 0.03	> 50	8.1 ± 0.8	4.5 ± 0.5	0.9 ± 0.1		IC50 [25]: 0.293 ± 0.0312 µM; IC50 [26]: 0.966 ± 0.0941 µM; IC50 [27]: 0.327 ± 0.033 µM; IC50 [28]: 0.596 ± 0.0601 µM
